For data set [1] the following is noted: cited from earlier work.
For the next data set, the system named is SCCVII cells. The data set is described as follows: Growth inhibition of SCCVII cells by 5-FC or 5-FU with or without cell extract from recombinant C. sporogenes. Here is the method:
The function of the C. sporogenes-derived cytosine deaminase was tested by assaying its ability to convert the nontoxic 5-fluorocytosine (5-FC) to the toxic 5-fluorouracil (5-FU).

In the next data set the test system is Walker 256 rat carcinoma. Particulars: cited from earlier work.
Data set [2] addresses nitroreductase enzyme from E. coli (Escherichia coli, UniProt P38489). Particulars: cited from earlier work.
Data set [3] has as its system mouse and human tumor cell lines. Conditions: cited from earlier work.
The next data set deals with SCCVII tumor cells. The data set is described as follows: Cell killing of SCCVII cells exposed to CB1954, NADH and supernatant from wild type or recombinant C. acetobutylicum (colony growth). Conditions: 2 hr incubation, NADH 500 μM.
For the next data set, the system named is Walker carcinoma cells. Conditions: cited from earlier work.
The conditions of data set [4]: prodrug alone; cited from earlier work.
For data set [5], the system named is human breast and ovarian cancer cells. Conditions: cited from earlier work.

Chain of nitroreductase enzyme from E. coli (P38489 whole entry): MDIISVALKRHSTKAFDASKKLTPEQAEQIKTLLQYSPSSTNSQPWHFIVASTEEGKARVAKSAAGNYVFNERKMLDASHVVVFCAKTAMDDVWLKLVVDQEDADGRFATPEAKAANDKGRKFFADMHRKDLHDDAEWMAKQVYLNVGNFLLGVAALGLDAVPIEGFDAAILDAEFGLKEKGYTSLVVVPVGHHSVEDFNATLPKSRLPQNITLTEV
Method for SCCVII tumor cells: The ability of recombinant C. acetobutylicum to activate CB1954 was also tested in vitro, also as described in Example 1. Briefly, recombinant and wild type C. acetobutylicum were inoculated into medium, and after overnight incubation, the cultures were centrifuged and the supernatant collected. The supernatant was added to cultures of SCCVII tumor cells, along with addition of various concentrations of CB1954 in DMSO. After incubation for two hours, the cells were counted by hemocytometer, and appropriate dilutions plated and incubated for colony growth.
In order to test the ability of recombinant C. acetobutylicum to activate CB1954, recombinant and wild type C. acetobutylicum were inoculated into 20 ml of medium. After overnight incubation, the cultures were centrifuged and the supernatant collected and diluted 1:3 with Waymouth's growth medium. […] To these cultures, different concentrations of CB1954 in DMSO were added, and the amount of DMSO adjusted in all of the cultures (including the controls) to 1% DMSO. Controls consisted of cell culture with only the supernatant/cell culture medium mixture. […]
After a 2 hr incubation in air at 37° C., the medium was removed, all the plates were washed 3 times with PBS, trypsinized, the cells counted by hemocytometer, and appropriate dilutions plated and incubated for 10 days in a 5% CO2 incubator at 370 C for colony growth.

On to `O=C(O)[C@H]1O[C@@H](n2cc(F)c(=O)[nH]c2=O)[C@H](O)[C@@H](O)[C@@H]1O` [1-N-β-glucuronide of 5-fluorouracil], for which the stability in vivo entry in data set [1] is “stable in vivo”.

As to `Nc1nc(=O)[nH]cc1F` [5-FC, 5-fluorocytosine], in the data set with SCCVII cells, the “effect of cell extract from C. sporogenes transformed with an empty vector on sensitivity” value was “did not affect the sensitivity” and the “toxicity of 5-FC plus cell extract from recombinant C. sporogenes compared with 5-FU” value is listed as “same toxicity as 5-FU”. Moreover, the “increase in cytotoxicity of 5-FC by cell extract from recombinant C. sporogenes expressing cytosine deaminase (factor)” value in the data set on SCCVII cells (cell extract 5, 10, 20 μg/ml) is 10^4.

In the case of `O=c1[nH]cc(F)c(=O)[nH]1` [5-FU, 5-fluorouracil], the “effect of cell extract from recombinant C. sporogenes on sensitivity to 5-FU” value in the data set with SCCVII cells is “nor did cell extract from recombinant C. sporogenes affect sensitivity to 5-FU”.

Turning to `NC(=O)c1cc(N2CC2)c([N+](=O)[O-])cc1[N+](=O)[O-]` [CB1954, 5-[aziridine-1-yl]-2,4-dinitrobenzamide], the “activity against Walker 256 rat carcinoma in vivo” value in the data set on Walker 256 rat carcinoma was “potent activity”. Moreover, the “rate of reduction of CB1954 relative to that of the rat DT diaphorase” value in data set [2] is on record as 60 times. Further, in [3], the “activity against a range of mouse and human tumor cell lines” value is given as “poor activity”; the “difference in sensitivity between rat and human cells (factor)” value is 10^4-10^5. Also, the “enhancement of the toxicity of CB1954 by supernatant from transformed C. acetobutylicum” value in the data set with SCCVII tumor cells was “approximately 10 fold”. Further, the “activity on Walker carcinoma cells in vitro” value in the data set on Walker carcinoma cells was “potent activity”.

“butylated ammonium salt of the glucuronide conjugate of hydroxyanaline mustard”: in data set [4], the “potency relative to hydroxyanaline mustard (times less potent)” value was 10^3 times.

With glucuronide conjugate of epirubicin, the “toxicity when combined with a Mab-β-glucuronidase conjugate” value in [5] was “as toxic as epirubicin”. The “toxicity of the prodrug (fold less toxic)” value in data set [5] (prodrug alone) was “approximately 100 fold”.

The values are drawn from patent publication US6984513B2, “Anaerobe targeted enzyme-mediated prodrug therapy” (priority 1994, dated 2006).
